Results as given in patent US7531663B2, “3-guanidinocarbonyl-1-heteroaryl-indole derivatives, preparation process, their use as medicaments, and pharmaceutical compositions comprising them” (sanofi-aventis Deutschland GmbH, priority 2003, dated 2009).
Where a name gives a salt, the structure may show the parent alone.

Key:
[1] = molecular target: T1, NHE1 (Homo sapiens, UniProt P19634); assay: NHE inhibition FLIPR test (intracellular pH recovery, BCECF) in transfected LAP-1 cell lines; type: cell-based; conditions: transfected LAP-1 cell line expressing NHE1 subtype, BCECF fluorescence, pHi recovery after acidification
T1 construct: expressed in transfected cells; host or cells: LAP-1 (parental line without endogenous NHE activity), G418-selected transfectants
Protocol: The NHE inhibitory activities (IC50 values) of the compounds according to the invention were determined by a FLIPR test.
The test is performed in the FLIPR (Fluorescent Imaging Plate Reader) equipped with clear-bottomed and black-walled 96-well microtitration plates.
The growth medium for the transfected cells (Iscove+10% foetal calf serum) also comprises G418 as selection antibiotic to ensure the presence of transfected sequences.
The actual test begins by eliminating the growth medium and adding 100 μl of loading buffer per well (5 μM of BCECF-AM [2′,7′-bis(2-carboxyethyl)-5-(6)-carboxyfluoresceine acetoxymethyl ester] in 20 mM of NH4Cl 115 mM of choline chloride, 1 mM of CaCl2, 5 mM of KCl, 20 mM of HEPES and 5 mM of glucose; pH 7.4 (adjusted with KOH). The cells are then incubated for 20 minutes at 37° C. This incubation results in the loading of the fluorescent dye into the cells, the fluorescence intensity of which depends on the pHi, and on the NH4Cl, which results in a slight basification of the cells.
The precursor BCECF-AM, a non-fluorescent dye, is, as an ester, capable of crossing the membrane. The actual dye, which is incapable of crossing the membrane, is released inside the cell by esterases.
After this 20-minute incubation, the loading buffer, which comprises NH4Cl and free BCECF-AM, is removed by washing three times in the cell washing device (Tecan Columbus), each wash being performed with 400 μl of washing buffer (133.8 mM of choline chloride, 4.7 mM of KCl, 1.25 mM of MgCl2, 1.25 mM of CaCl2, 0.97 mM of K2HPO4, 0.23 mM of KH2PO4, 5 mM of HEPES and 5 mM of glucose; pH 7.4 (adjusted with KOH)). The residual volume remaining in the wells is 90 μl (possibly between 50 and 125 μl). This washing step removes the free BCECF-AM and results in an intracellular acidification (pHi of 6.3-6.4) due to the removal of the external ammonium ions.
As the equilibrium of the intracellular ammonium with the aqueous ammonia and the protons, by removal of the extracellular ammonium and by the subsequent immediate crossing of the aqueous ammonia across the cell membrane, is disrupted, the washing process results in intracellular protons remaining, which is the cause of the intracellular acidification. This acidification can result finally in the death of the cells if it lasts long enough. It is important here for the washing buffer to be free of sodium (<1 mM), otherwise the extracellular sodium ions would result in an immediate increase in the pHi on account of the activity of the cloned NHE isoforms. It is also important for all the buffers used (loading buffer, washing buffer and regeneration buffer) not to contain any HCO3-ions, otherwise the presence of bicarbonate would result in the activation of bicarbonate-dependent systems that disrupt the pHi regulation, which systems are contained in the LAP-1 parental cell line.
The microtiter plates containing acidified cells are then transferred (up to 20 minutes after the acidification) to the FLIPR. In the FLIPR, the intracellular fluorescent dye is activated with light of a wavelength of 488 nm, which is generated by an argon laser, and the measuring parameters (laser power, illumination time and diaphragm of the […] camera integrated into the FLIPR) are chosen such that the average value of the fluorescent signal per well is between 30,000 and 35,000 relative fluorescence units.
The actual measurement in the FLIPR starts with a photograph being taken by the CCD camera every two seconds under software control. After 10 seconds, the increase in the intracellular pH is initiated by adding 90 μl of regeneration buffer (133.8 mM of NaCl, 4.7 mM of KCl, 1.25 mM of MgCl2, 1.25 mM of CaCl2, 0.97 mM of K2HPO4, 0.23 mM of KH2PO4, 10 mM of HEPES and 5 mM of glucose; pH 7.4 (adjusted with NaOH)) using a 96-well pipette device incorporated into the FLIPR. Some wells, to which is added pure regeneration buffer, serve as positive controls (100% NHE activity). […]

T1 sequence (P19634 whole entry): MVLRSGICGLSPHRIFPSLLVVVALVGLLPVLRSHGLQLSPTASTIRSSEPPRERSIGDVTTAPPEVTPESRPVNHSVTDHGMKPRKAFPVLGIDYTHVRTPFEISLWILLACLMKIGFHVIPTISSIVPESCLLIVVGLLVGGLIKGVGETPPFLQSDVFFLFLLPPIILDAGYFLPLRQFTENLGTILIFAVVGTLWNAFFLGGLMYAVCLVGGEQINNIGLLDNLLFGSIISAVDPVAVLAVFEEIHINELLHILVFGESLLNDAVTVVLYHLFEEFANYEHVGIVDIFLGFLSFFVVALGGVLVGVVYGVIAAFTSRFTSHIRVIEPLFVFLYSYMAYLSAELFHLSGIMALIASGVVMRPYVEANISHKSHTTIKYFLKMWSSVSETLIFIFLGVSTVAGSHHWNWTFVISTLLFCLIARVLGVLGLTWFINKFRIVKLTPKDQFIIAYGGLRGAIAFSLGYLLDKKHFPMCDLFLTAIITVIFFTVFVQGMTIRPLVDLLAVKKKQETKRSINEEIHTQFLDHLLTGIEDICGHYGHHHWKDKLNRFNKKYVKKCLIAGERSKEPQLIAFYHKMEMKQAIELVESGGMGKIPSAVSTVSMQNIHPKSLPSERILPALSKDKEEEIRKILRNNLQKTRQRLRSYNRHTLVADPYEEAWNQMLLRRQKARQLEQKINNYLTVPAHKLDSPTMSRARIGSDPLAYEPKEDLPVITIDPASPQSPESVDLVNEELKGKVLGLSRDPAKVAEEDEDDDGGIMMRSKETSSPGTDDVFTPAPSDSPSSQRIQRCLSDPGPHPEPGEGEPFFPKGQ

melting point [°C]	IC50 [1] [nM]	Compound
262	14	Cl.NC(N)=NC(=O)c1cn(-c2nccc3ccccc23)c2ccccc12 [Example 1, 3-Guanidinocarbonyl-1-(isoquinol-1-yl)-1H-indole hydrochloride]
270	4	Cl.NC(N)=NC(=O)c1cn(-c2ccnc3ccccc23)c2ccccc12 [Example 2, 3-Guanidinocarbonyl-1-(quinol-4-yl)-1H-indole hydrochloride]
	535	NC(N)=NC(=O)c1cn(-c2ccc3ccccc3n2)c2ccccc12 [Example 3, 3-Guanidinocarbonyl-1-(quinol-2-yl)-1H-indole hydrochloride]
268	200	Cc1ccc2c(c1)c(C(=O)N=C(N)N)cn2-c1nccc2ccccc12.Cl [Example 4, 3-Guanidinocarbonyl-1-(isoquinol-1-yl)-5-methyl-1H-indole hydrochloride]
268	4980	Cc1ccc2c(c1)c(C(=O)N=C(N)N)cn2-c1ccc2ccccc2n1.Cl [Example 5, 3-Guanidinocarbonyl-5-methyl-1-(quinol-2-yl)-1H-indole hydrochloride]
268	206	Cc1ccc2c(c1)c(C(=O)N=C(N)N)cn2-c1ccnc2ccccc12.Cl [Example 6, 3-Guanidinocarbonyl-5-methyl-1-(quinol-4-yl)-1H-indole hydrochloride]
268	433	Cl.NC(N)=NC(=O)c1cn(-c2cnc3ccccc3c2)c2ccccc12 [Example 7, 3-Guanidinocarbonyl-1-(quinol-3-yl)-1H-indole hydrochloride]
268	143	Cl.NC(N)=NC(=O)c1cn(-c2ccc3ncccc3c2)c2ccccc12 [Example 8, 3-Guanidinocarbonyl-1-(quinol-6-yl)-1H-indole hydrochloride]
172	275	N=C(N)NC(=O)c1cn(-c2cccc3cccnc23)c2ccccc12 [Example 9, 3-Guanidinocarbonyl-1-(quinol-8-yl)-1H-indole]
	1870	N=C(N)NC(=O)c1cn(-c2cc3ccccc3cn2)c2ccccc12 [Example 10, 3-Guanidinocarbonyl-1-(isoquinol-3-yl)-1H-indole hydrochloride]
	47	COc1ccc2c(C(=O)NC(=N)N)cn(-c3ccnc4ccccc34)c2c1 [Example 11, 3-Guanidinocarbonyl-6-methoxy-1-(quinol-4-yl)-1H-indole dihydrochloride]
	76	N=C(N)NC(=O)c1cn(-c2ccnc3ccccc23)c2cc(F)ccc12 [Example 12, 6-Fluoro-3-guanidinocarbonyl-1-(quinol-4-yl)-1H-indole hydrochloride]
	39	N=C(N)NC(=O)c1cn(-c2ccnc3ccccc23)c2ccc(F)cc12 [Example 13, 5-Fluoro-3-guanidinocarbonyl-1-(quinol-4-yl)-1H-indole hydrochloride]
	2460	N=C(N)NC(=O)c1cn(-c2ccnc3ccccc23)c2ccc(Cl)cc12 [Example 14, 5-Chloro-3-guanidinocarbonyl-1-(quinolin-4-yl)-1H-indole]
	1.5	NC(N)=NC(=O)c1cn(-c2cnnc3ccccc23)c2ccccc12 [Example 15, N-[1-(Cinnolin-4-yl)-1H-indole-3-carbonyl]-guanidine trifluoroacetate]
	1670	COc1ccc2c(c1)c(C(=O)N=C(N)N)c(C)n2-c1cnnc2ccccc12 [Example 16, N-[1-(Cinnolin-4-yl)-5-methoxy-2-meth-yl-1H-indole-3-carbonyl]-guani-dine trifluoroacetate]
